US9420790B2, “Molecules that induce disease resistance and improve growth in plants” (The Regents of the University of California, priority 2013, dated 2016)
Entries after “also recorded” stand apart in the source; their conditions may differ.

Experiments:
[1] = test system: CaBP22^−333::GUS expression; experiment: CaBP22-333::GUS reporter assay, liquid-grown seedlings (saturation treatment); format: in vivo, Arabidopsis thaliana
Procedure: (§1) B. Trypan blue staining of CaBP22^−333 : :GUS seedlings incubated for 24 h in medium containing compounds at the indicated concentrations.
(§2) To quantify the bioactivity of HTC, we performed various assays with one week-old CaBP22^−333::GUS seedlings submerged in liquid growth medium containing HTC or mock-solution (saturation treatment). […] To examine if HTC induces phytotoxicity, we stained Col-0 seedlings after saturation treatment with trypan blue.
(§3) To determine which substituents or moieties of the HTC molecule are critical for its defense-inducing activity, seven commercially available HTC analogs were analyzed (FIG. 3A). We compared the ability of these compounds to induce GUS expression in saturation treated CaBP22^−333::GUS Arabidopsis seedlings to that of DCA and HTC. […] We also used trypan blue staining to examine HTC-analog-induced phytotoxicity.

[2] = test system: Peronospora isolate Noco2; experiment: Noco2 spore inhibition assay in soil-grown seedlings; format: in vivo, Hyaloperonospora arabidopsidis; conditions: for level of protection / defense-inducing activity against Noco2 / concentration giving significant protection against Noco2: dose-response; for level of protection / defense-inducing activity against Noco2: three-week old Col-0 (FIG. 3B); for concentration giving significant protection against Noco2: three-week old Col-0, infected 24 h after treatment, 7 dpi (FIG. 3B); for resistance to Noco2: 100 μM sprayed 1 h prior to pathogen challenge; for suppression of Noco2 spore formation / resistance to Noco2: 7 dpi; for HTC-triggered immunity to Noco2: 100 μM
Procedure: FIG. 2. Kinetic analysis of chemically-induced disease resistance. Experiments were conducted with three-week-old soil-grown Col-0 seedlings sprayed with 100 μM HTC, DCA, INA, or mock solution (1% DMSO) at the indicated times prior to being sprayed with 2×10^4 mL^−1Noco2 spores (2 ml per pot). Peronospora (Hyeloperonospora arabidopsidis) spores were counted 7 dpi (days post-infection). Mean and SE values were calculated from a minimum of three biological replicates and the average of those is shown above.
FIG. 3. Structure-activity analysis of HTC analogs. A. Chemical structures of DCA, HTC and tested HTC analogs. Chiral centers of the HTC skeleton are indicated by “1*” and “2*” in HTC. B. Noco2 spore inhibition assay. Three-week-old soil-grown Col-0 seedlings were spray-infected 24 h after treating with varying concentrations of each synthetic elicitor and then assayed at 7 dpi for spore growth. 100% inhibition=0 spores. […] The average of those three replicates is shown. Significant differences of compound-treated compared to mock-treated seedlings determined by Student's t-tests (p<0.05) are marked by colored four pointed stars.
(§4) FIG. 4. Analysis of HTC activity in defense mutant plants. A & B. RT-PCR analysis of CaBP22 transcript levels in Col-0 (wild-type) and mutant backgrounds 24 h after spraying 2-week-old seedlings with mock-solution (1% DMSO), 100 μM DCA, or HTC. RT-PCRs with ACTIN are shown as loading controls. […] C. Analysis of HTC activity in Col-0 or nahG background. Experiments were conducted with three-week-old soil-grown Col-0 or nahG seedlings sprayed with 100 μM HTC, 100 μM DCA, or mock-solution (1% DMSO) 24 h prior to infection with 2×10^4 virulent Noco2 spores ml^−1 (2 ml per pot). Spores were counted at 7 dpi. Mean and SE values were calculated from a minimum of three biological replicates and their averages of are shown.
We next tested whether HTC could induce pathogen resistance in soil-grown plants. […] To determine if HTC differs from other synthetic elicitors in the kinetics of defense induction, Col-0 seedlings were sprayed with 100 μM of INA, DCA, HTC, or mock, 1 h, 3 h, 1 d, 3 d, or 6 d prior to pathogen challenge.
We performed a dose-response analysis of inhibition of Noco2 spore development in three-week old Col-0 plants using the HTC analogs (FIG. 3B).
We also compared the biological activity of s-HTC to that of p-HTC by spraying a concentration gradient of both preparations on soil-grown Col-0 seedlings 24 h prior to challenge with Noco2.

Col-0 seedlings [3] = experiment: Trypan blue staining for phytotoxicity (cell death) after saturation treatment; format: in vivo, Arabidopsis thaliana; conditions: for seedlings with cell death (trypan blue staining): treated for 24 h at 300 μM
Procedure: as §1, §2, §3

CaBP22 transcript levels = experiment: RT-PCR analysis of CaBP22 transcript levels in Col-0 and defense mutants; format: in vivo, Arabidopsis thaliana; conditions: for ability to induce CaBP22 expression: transgenic nahG line; for ability to induce CaBP22 expression / CaBP22 transcript accumulation: 100 μM
Procedure: as §4
To establish the mode-of-action of HTC, we performed reverse transcription (RT)-PCRs examining transcript levels of the defense marker gene CaBP22 in Col-0 and a set of mutant lines representing various defense signaling mechanisms. […] In the transgenic nahG line, which is compromised in the accumulation of salicylic acid (SA), the ability of HTC to induce CaBP22 expression was blocked, while that of DCA was not affected (FIGS. 4A and B).

Arabidopsis roots = experiment: Root length of Col-0 seedlings on 1/2 MS plates containing synthetic elicitor; format: in vivo, Arabidopsis thaliana; conditions: for enhancement of root length / root growth: HTC at 1 μM only, DCA and INA at various tested concentrations; for root growth at higher concentrations: higher doses, range tested 1 to 100 μM
Procedure: FIG. 5. Relative root length of Col-0 plants grown on synthetic elicitors. Col-0 seedlings were plated in square petri dishes on ½ MS medium containing 1, 10, 25, 50, 75 or 100 μM of HTC, DCA, INA, or the respective controls (solvent only). A. Roots of Col-0 seedlings grown on 1 uM HTC or control (0.01% DMSO) medium 14 days after germination. B. Average percent Col-0 root length grown on synthetic elicitors compared to Col-0 grown on control. Root length was measured at day 3, 5, 7, 11, and 14. Results are expressed as percentages of the average root length on the respective synthetic elicitor treatments compared to their controls. The average, standard error, and Student's t-test (p<0.05) were calculated from these values. Significant differences between synthetic elicitor-treated and control-treated plants are marked by a star above the corresponding data point. Y-axis represents relative root growth in the presence of synthetic elicitor. CSE: concentration of synthetic elicitor; dpg: days post germination.
We compared the ability of other synthetic elicitors to enhance growth, and performed root growth assays with INA, DCA, and HTC (FIG. 5B). Each synthetic elicitor was added to the solid media plates at concentrations ranging from 1 to 100 μM. The plates were placed upright in a growth chamber, and root lengths were measured at 3 d-intervals. To merge data sets, root length was expressed as a percentage of their value relative to the average of the mock (control) for that data set. Normalizing each root length to its control allowed all replicates to be combined together to calculate averages, standard errors, and perform statistical tests (FIG. 5B).

[4] = test system: Hyaloperonospora arabidopsidis (Peronospora); conditions: Arabidopsis; cited from earlier work
Pseudomonas syringae = conditions: Arabidopsis; cited from earlier work
Col-0 seedlings [5] = experiment: Fresh weight of aerial portions of soil-drenched Col-0 seedlings; format: in vivo, Arabidopsis thaliana; conditions: 1-100 μM soil drench, day 14
Procedure: FIG. 6. Relative weight of aerial portions of synthetic elicitor treated Col-0 seedlings compared to control (DMSO) treated seedlings. Col-0 seeds (15-20 seeds per pot) were sown on soil drenched with 20 mL of the indicated concentrations of HTC, INA, DCA, or the respective mock solutions. Fresh weight (FW) of the above-ground plant tissues was measured at day 14. Results are expressed as percentages of the average FW of the respective synthetic elicitor treated plants compared to that of mock-treated controls. The standard error and Student's t-test (p<0.05) were calculated from at least three biological replicates and averages are shown. Significant differences between synthetic elicitor-treated and control-treated plants are marked by a star above the corresponding data point. Y-axis represents percent of FW in the presence of synthetic elicitor compared to controls.
To determine whether the synthetic […] could increase the aerial weight of Arabidopsis, soil-sown-seedlings were drenched with synthetic elicitor in water at day 0 (FIG. 6). After 14 days, aerial portions of plants were cut off and their fresh weight measured. […] HTC thus has a hormesis-like effect in Arabidopsis roots, but generally increases the aerial fresh weight of Arabidopsis at the concentrations tested.

[6] = test system: Tomato cv. Moneymaker seedlings; experiment: Root length of plate-grown tomato seedlings; format: in vivo, Solanum lycopersicum; conditions: 1 μM
Procedure: (§5) FIG. 7. Relative root length and FW of tomato seedlings and shoots. Tomato cv. Moneymaker seedlings treated with HTC compared to seedlings treated with control (DMSO 0.01%). A. Moneymaker seedlings were plated in square petri dishes on ½ MS medium containing HTC. Root length was measured at day 2, 4, 6, and 8. Results are expressed as percentages of the average root length on 1 μM HTC or control. The average, standard error, and Student's t-test (p<0.05) were calculated from these values. Each time point represents at least 89 distinct root length measurements from at least three biological replicates. Y-axis represents percent of root growth in the presence of synthetic elicitor compared to controls. B. Moneymaker seeds (five seeds per pot with a minimum of 21 pots) were sown on soil drenched with 20 ml of the indicated concentrations of HTC or their respective control. Fresh weight (FW) of the above-ground plant tissues was measured at day 14. Results are expressed as percentages of the average weight of HTC treatments compared to those of the controls. The standard error and Student's t-test (p<0.01) were calculated from at least three biological replicates and the average is shown above. Significant differences between synthetic elicitor-treated and control-treated plants are marked by stars above the corresponding data points. […]

[7] = test system: Tomato cv. Moneymaker seedlings; experiment: Root drench assay, aerial fresh weight of soil-grown tomato; format: in vivo, Solanum lycopersicum; conditions: 10 μM single soil drench, day 14
Procedure: as §5

[8] = Col-0, 100 μM sprayed 24 h prior to infection
[9] = nahG, 100 μM sprayed 24 h prior to infection
[10] = Col-0, 24 h after spraying 100 μM
[11] = wrky70-3 mutant, 24 h after spraying 100 μM

Row | Structure (SMILES) | level of protection / defense-inducing activity against Noco2 [2] | concentration giving significant protection against Noco2 [2] | seedlings with cell death (trypan blue staining) (Col-0 seedlings [3]) [%] | resistance to Noco2 [2] | suppression of Noco2 spore formation / resistance to Noco2 [2, 8] | suppression of Noco2 spore formation / resistance to Noco2 [2, 9] | CaBP22 transcript levels (CaBP22 transcript levels; [10]) | ability to induce CaBP22 expression (CaBP22 transcript levels) | CaBP22 transcript levels (CaBP22 transcript levels; [11]) | enhancement of root length / root growth (Arabidopsis roots) | root growth at higher concentrations (Arabidopsis roots) | also measured
1 | O=C(O)C1CSC(c2ccccc2O)N1 (stereo not drawn) [CMP140, 2-(2-hydroxy-phenyl)-thiazolidine-4-carboxilic acid] | less efficient defense inducer compared to HTC | at least 100 uM | – | – | – | – | – | – | – | – | – | efficiency of GUS induction among HTC analogs [1]: most efficient HTC analog
2 | Nc1c(Cl)cc(Cl)cc1C(=O)O [DCA, 3-5-dicholoroanthranlilic acid, reference compound] | highest protection | 10 µM | 100 | full resistance | induced resistance; also recorded: significantly suppresses | induced resistance; also recorded: significantly suppresses | induced an increase | not affected | not | enhanced Arabidopsis root growth | strongly inhibited | disease resistance [4]: fast, strong and transient disease resistance; disease resistance (Pseudomonas syringae): fast, strong and transient disease resistance
3 | O=C(O)C1CSC(c2cc(Br)ccc2O)N1 (stereo not drawn) [HTC, 2-(5-bromo-2-hydroxy-phenyl)-thiazolidine-4-carboxylic acid] | highest protection; also recorded: most potent of the tested analogs | 10 µM | 100 | – | able to do so; also recorded: significantly suppresses | did not observe significant reduction and not | induced an increase | blocked | not | enhanced the root length | reduced root growth; also recorded: strongly inhibited | concentration activating CaBP22-333::GUS expression (as low as) ([1]; within 24 h, one week-old seedlings): 1 µM; cell death (trypan blue staining) (Col-0 seedlings [3]; lower concentrations that resulted in reporter activation (1-100 μM)): No cell death; HTC-triggered immunity to Noco2 ([2]; 6 dpt): not detectable; HTC-triggered immunity to Noco2 ([2]; 3 days post treatment (dpt)): reduced; efficacy of s-HTC versus p-HTC in reducing Noco2 spore counts ([2]; 20, 50, 100, and 200 μM sprayed on Col-0 24 h prior to challenge): No significant difference; concentration giving significantly reduced numbers of Noco2 spores (as low as) ([2]; Col-0 sprayed prior to infection, spores 7 dpi): 10 µM; CaBP22 transcript accumulation (CaBP22 transcript levels; pad4-1 mutant): reduced; CaBP22 transcript accumulation (CaBP22 transcript levels; sid2-2 mutant): reduced; CaBP22 transcript accumulation (CaBP22 transcript levels; wrky72-2 mutant): full HTC-induced CaBP22 transcript accumulation; root length relative to control plates (Arabidopsis roots; 1 μM): up to 180%; reduction of length of roots (Arabidopsis roots; concentrations above 50 μM): ~80%; fresh weight of shoots relative to mock-treated plants (Col-0 seedlings [5]): ~120%; change in root length ([6]; all analyzed time-points): significant increase in root length; root length relative to mock-treated plants ([6]; day 6): 136.1%; fresh weight of shoots relative to mock-treated plants [7]: 128.5%
4 | O=C(O)c1cc(Cl)nc(Cl)c1 [INA, reference compound] | – | – | – | full resistance | – | – | – | – | – | enhanced Arabidopsis root growth | not | –
5 | O=C(O)C1CSCN1 (stereo not drawn) [T4CA, 4-carboxy-4-thiazolidinyl, reference compound] | did not result in significant immunity | – | – | – | – | – | – | – | – | – | – | –
